Source: ChEMBL document CHEMBL1130840, “Synthesis and anti-HIV activities of urea-PETT analogs belonging to a new class of potent non-nucleoside HIV-1 reverse transcriptase inhibitors” (Bioorg Med Chem Lett, 1998)

How the values were obtained:
[1] = tested on: Human immunodeficiency virus 1; assay: (§1) Antiviral activity was determined against wild type HIV-1 in MT-4 cells infected with HIV-1 IIIB using an XTT assay; format: functional; conditions: Human immunodeficiency virus 1, MT4; read-out: ED50 (the source's name)
[2] = tested on: Human immunodeficiency virus 1; assay: as §1; format: functional; conditions: Human immunodeficiency virus 1, MT4; read-out: ED50 (the source's name); remark: listed apart in the source
[3] = biological target: Human immunodeficiency virus type 1 reverse transcriptase (Human immunodeficiency virus 1, UniProt Q72547, Y181C); assay: Inhibitory effect on recombinant HIV- 1 reverse transcriptase which has a mutation Tyr 181 to Cys 181 (clone 90)
[4] = tested on: Human immunodeficiency virus 1; assay: Antiviral activity was determined against HIV-1 (clone 118) in MT-4 cells infected with HIV-1 IIIB using an XTT assay; format: functional; conditions: Human immunodeficiency virus 1, MT4; read-out: ED50 (the source's name)
[5] = tested on: Human immunodeficiency virus 1; assay: Antiviral activity was determined against HIV-1 (clone 90) in MT-4 cells infected with HIV-1 IIIB using an XTT assay; format: functional; conditions: Human immunodeficiency virus 1, MT4; read-out: ED50 (the source's name)
[6] = biological target: Human immunodeficiency virus type 1 reverse transcriptase (Human immunodeficiency virus 1, UniProt Q72547, L100I); assay: Inhibitory effect on recombinant HIV- 1 reverse transcriptase which has a mutation Leu 100 to Ile 100 (clone 118)
[7] = biological target: Human immunodeficiency virus type 1 reverse transcriptase (Human immunodeficiency virus 1, UniProt Q72547); assay: Inhibitory effect on wild type HIV- 1 reverse transcriptase using rCdG as template and dGTP as substrate.
[8] = tested on: MT4; assay: Compound was tested for its inhibitory effect on HIV-1 in MT-4 cells; format: functional; conditions: Homo sapiens, read-out: ED50 (the source's name)
[9] = tested on: MT4; assay: Antiviral activity was determined against wild type HIV- I in MT-4 cells infected with HIV-1 IIIB using an XTT assay which contains 15% human AB serum.; format: functional; conditions: read-out: ED50 (the source's name)

SMILES | EC50 [1] | EC50 [2] | IC50 [3] | EC50 [4] | EC50 [5] | IC50 [6] | IC50 [7] | EC50 [8] | EC50 [9]
CCOc1ccc(F)c([C@H]2C[C@H]2NC(=O)Nc2ccc(C#N)cn2)c1Cl | 20 nM | 10 nM | 70 nM | 270 nM | 530 nM | 80 nM | 4 nM |  | 
S=C(NCCc1ccccc1)Nc1nccs1 |  |  |  |  |  |  |  | 1300 nM | 
CCOc1ccc(F)c([C@H]2C[C@H]2NC(=O)Nc2ccc(Cl)cn2)c1Cl | 60 nM | 16 nM | 50 nM | 100 nM |  | 80 nM | 8 nM |  | 
CN(C)c1ccc(F)c(CCNC(=O)Nc2ccc(Br)cn2)c1F |  | 500 nM | 1500 nM | > 25000 nM | > 25000 nM | > 2500 nM | 25 nM |  | 
Cc1ccnc2c1NC(=O)c1cccnc1N2C1CC1 [NEVIRAPINE] |  | 150 nM |  | 620 nM | 22000 nM |  |  |  | 
COc1ccc(OC)c(CCNC(=O)Nc2ccc(Cl)cn2)c1F | 90 nM | 11 nM | 140 nM | 17000 nM | 3000 nM | 140 nM | 3 nM |  | 
O=C(Nc1ccc(Cl)cn1)N[C@@H]1C[C@@H]1c1c(F)cccc1F |  | 6 nM | 120 nM |  |  | 30 nM | 2 nM |  | 10 nM
CCOc1ccc(F)c(CCNC(=O)Nc2ccc(Br)cn2)c1Cl |  | 70 nM | 240 nM | 15000 nM | 8000 nM | 1700 nM | 4 nM |  | 
CCOc1ccc(OC)c([C@H]2C[C@H]2NC(=O)Nc2ccc(Br)cn2)c1F | 400 nM | 25 nM | 90 nM |  |  | 240 nM | 7 nM |  | 
COc1ccc(OC)c([C@H]2C[C@H]2NC(=O)Nc2ccc(Cl)cn2)c1F | 100 nM | 12 nM | 270 nM | 1600 nM | 2700 nM | 270 nM | 2 nM |  | 
COc1ccc(C(C)=O)c(F)c1CCNC(=O)Nc1ccc(Cl)cn1 |  | 200 nM | 10000 nM | > 27000 nM | > 27000 nM | 1100 nM | 100 nM |  | 
O=C(NCCc1c(F)cccc1F)Nc1ccc(Cl)cn1 | 850 nM | 30 nM |  | 32000 nM | > 32000 nM |  |  |  | 
CCc1cc(NCc2nc3c(Cl)ccc(Cl)c3o2)c(O)nc1C [L-697661] |  | 65 nM | 15000 nM | 850 nM | > 11000 nM | 1600 nM |  |  | 
CCOc1ccc(OC)c(CCNC(=O)Nc2ccc(Cl)cn2)c1F |  | 130 nM | 500 nM | 14000 nM | > 27000 nM | 2500 nM | 8 nM |  | 
CCOc1ccc(Cl)c([C@H]2C[C@H]2NC(=O)Nc2ccc(Cl)cn2)c1F | 100 nM | 8 nM | 20 nM | 100 nM | 100 nM | 50 nM | 1.5 nM |  | 
CCOc1ccc(F)c([C@H]2C[C@H]2NC(=O)Nc2ccc(Cl)cn2)c1F | 30 nM | 8 nM | 15 nM | 750 nM | 270 nM | 80 nM | 1.5 nM |  | 
S=C(NCCc1ccccn1)Nc1ccc(Br)cn1 [TROVIRDINE] | 5000 nM | 20 nM | 3200 nM | 800 nM | > 5000 nM | 700 nM |  |  | 
